Laboratory results from patent US4769447A, “Gamma-Glutamyl-4-azoanilides” (Boehringer Mannheim GmbH, priority 1986, dated 1988).
Structures can show the parent of a compound that is named as a salt.

Legend:
[1] = Absorption maxima (λmax., Δλmax.) and extinction coefficient of substrates and liberated coloured materials; assay type: physicochemical; details: for λmax. (coloured material): coloured material liberated from the substrate; for Δλmax. = λmax. (coloured material) - λmax. (substrate): difference of the absorption maxima
Excerpt: Thus, for example, the difference of the absorption maxima of the known substrate γ-glutamyl-3-carboxy-4-nitroanilide (λmax. 317 nm) and of the coloured material obtained therefrom, i.e. 3-carboxy-4-nitroaniline(λmax. 380 nm) is 63 nm. In contradistinction thereto, the compounds according to the present invention of general formula (I) display substantially greater differences between the absorption spectra of the substrate and of the coloured material liberated enzymatically therefrom. As a rule, this difference is from 80 to 110 nm.
Δλmax. hereby means the difference between λmax. (coloured material)-λmax. (substrate).

[2] = molecular target: T1, γ-glutamyl transferase (γ-GT) (Homo sapiens, UniProt P19440); assay: Determination of the activity of γ-glutamyl transferase in a control serum at 25° C. with different substrates; assay type: biochemical; details: for extinction coefficient: at the measurement wavelength: 546 nm (S1, S8, S9), 578 nm (S5), 405 nm (L-Glupa C); for γ-GT activity found in control serum (U/liter at 25° C.): same control serum, substrate 1 mmole/liter, glycylglycine 150 mmole/liter, pH 7.9
T1 construct: host or cells: control serum
T1 sequence (P19440 381-569 limits assumed): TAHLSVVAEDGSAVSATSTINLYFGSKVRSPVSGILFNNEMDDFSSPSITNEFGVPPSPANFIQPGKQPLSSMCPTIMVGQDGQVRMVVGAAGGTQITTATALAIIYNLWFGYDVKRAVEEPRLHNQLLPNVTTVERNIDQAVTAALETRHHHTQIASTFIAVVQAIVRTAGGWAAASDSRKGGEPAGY
T1 sequence (P19440 1-380 limits assumed): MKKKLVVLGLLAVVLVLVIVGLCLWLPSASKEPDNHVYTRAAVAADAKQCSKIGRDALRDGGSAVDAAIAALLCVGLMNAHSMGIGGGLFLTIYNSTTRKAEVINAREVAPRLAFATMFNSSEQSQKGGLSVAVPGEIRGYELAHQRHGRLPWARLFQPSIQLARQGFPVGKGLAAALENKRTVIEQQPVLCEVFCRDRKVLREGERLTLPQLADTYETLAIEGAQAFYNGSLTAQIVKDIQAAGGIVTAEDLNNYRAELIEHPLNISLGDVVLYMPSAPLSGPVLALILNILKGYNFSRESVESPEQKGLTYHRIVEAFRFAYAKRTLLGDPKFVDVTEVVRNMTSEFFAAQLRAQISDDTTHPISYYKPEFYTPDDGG
Protocol: (§1) 21.78 g. Glycylglycine were dissolved in about 900 ml. distilled water, the pH was adjusted to 7.9 with 2N aqueous sodium hydroxide solution, the amount of substrate calculated for a concentration of 1 mmole/liter was dissolved therein and the solution made up to 1000 ml. with distilled water. End concentration in the test:
(§2) 2.0 ml. of the reagent described in (a) was pipetted into a cuvette, tempered to 25° C. and mixed with 0.2 ml. of sample. The extinction increase per minute was measured at an apropriate wavelength.
(§3) One international unit (U) is the enzyme activity which converts 1 μmole of substrate per minute at 25° C. The activity of the γ-glutamyl transferase in U/liter in the sample is calculated according to the following equation: [formula] wherein ΔE/min is the extinction increase at an appropriate wavelength per minute, V is the batch volume in ml., v is the sample volume in ml., ε is the extinction coefficient in cm^2 μmol^-1 and d is the layer thickness of the cuvette in cm.

[3] = molecular target: T2, γ-GT (Homo sapiens, UniProt P19440); assay: Determination of the activity of γ-GT at 25° and 37° C. with S1 and L-Glupa C in human serum pools and control serum; assay type: biochemical
T2 construct: in three mixtures of human sera; from tissue; host or cells: human serum (three pools of different activity); also a control serum of unstated origin
T2 sequence (P19440 1-380 limits assumed): as above
T2 sequence (P19440 381-569 limits assumed): as the sequence (P19440 381-569 limits assumed) above

[4] = tested on: γ-GT; assay: as above; assay type: biochemical; details: control serum PPU 516
[5] = molecular target: T2, γ-GT; assay: as above; assay type: biochemical; details: 25° C.
Protocol: as §1, §2, §3
(§4) The substrates used were L-Glupa C and S1.

[6] = tested on: γ-GT; assay: as above; assay type: biochemical; details: control serum PPU 516; 25° C.
Protocol: as §1, §2, §3, §4

[7] = routine use; cited from earlier work

| Molecule | λmax. (substrate) [1] [nm] | Δλmax. = λmax. (coloured material) - λmax. (substrate) [1] [nm] | extinction coefficient [2] [cm^2 μmol^-1] | γ-GT activity found in control serum (U/liter at 25° C.) [2] [U/liter] | further results |
| --- | --- | --- | --- | --- | --- |
| 2-Amino-5-[[4-(2-cyano-4-nitrophenyl)-azo-3-(2-carboxyethoxy)-phenyl]-amino]-5-oxopentanoic acid diammonium salt [S2] | 414 |  |  |  |  |
| Nc1ccc([N+](=O)[O-])c(C(=O)O)c1 [3-carboxy-4-nitroaniline, reference compound] |  |  |  |  | λmax. (coloured material) [1]: 380 nm |
| N[C@@H](CCC(=O)Nc1ccc([N+](=O)[O-])c(C(=O)O)c1)C(=O)O [L-Glupa C, L-γ-glutamyl-3-carboxy-4-nitroanilide, reference compound] | 317 | 63 | 9.5 | 128 | γ-GT activity, human serum pool 1 [3]: 57 U/l.; γ-GT activity, human serum pool 2 [3]: 106 U/l.; γ-GT activity, human serum pool 3 [3]: 323 U/l.; γ-GT activity, control serum PPU 516 [4]: 211 U/l.; γ-GT activity, human serum pool 1 [5]: 35 U/l.; γ-GT activity, human serum pool 2 [5]: 63 U/l.; γ-GT activity, human serum pool 3 [5]: 190 U/l.; γ-GT activity, control serum PPU 516 [6]: 139 U/l. |
| N.N.N#Cc1cc([N+](=O)[O-])ccc1N=Nc1ccc(NC(=O)CCC(N)C(=O)O)cc1CCC(=O)O (centres unmarked) [S1, 2-Amino-5-[[4-(2-cyano-4-nitrophenyl)-azo-3-(2-carboxyethyl)-phenyl]-amino]-5-oxopentanoic acid diammonium salt] | 394 | 94 | 7.8 | 144 | γ-GT activity, human serum pool 1 [3]: 96 U/l.; γ-GT activity, human serum pool 2 [3]: 176 U/l.; γ-GT activity, human serum pool 3 [3]: 490 U/l.; γ-GT activity, control serum PPU 516 [4]: 268 U/l.; γ-GT activity, human serum pool 1 [5]: 42 U/l.; γ-GT activity, human serum pool 2 [5]: 76 U/l.; γ-GT activity, human serum pool 3 [5]: 220 U/l.; γ-GT activity, control serum PPU 516 [6]: 134 U/l. |
| NC(CCC(=O)Nc1ccc(N=Nc2ccc([N+](=O)[O-])cc2)c(C(=O)O)c1)C(=O)O (centres unmarked) [S3, 2-amino-5-[(3-carboxyl-4-(4-nitrophenyl)-azophenyl]-amino]-5-oxopentnoic acid diammonium salt] | 314 |  |  |  |  |
| N.N.NC(CCC(=O)Nc1ccc(N=Nc2cc(Cl)c([N+](=O)[O-])cc2Cl)c(OCC(=O)O)c1)C(=O)O (centres unmarked) [S4, 2-Amino-5-[[4-(2,5-dichloro-4-nitrophenyl)-azo-3-(carboxymethoxy)-phenyl]-amino]-5-oxopentanoic acid diammonium salt] | 402 |  |  |  |  |
| Cc1c(C#N)sc(N=Nc2ccc(NC(=O)CCC(N)C(=O)O)cc2CCC(=O)O)c1C#N.N.N (centres unmarked) [S5, 2-Amino-5-[[3-(2-carboxyethyl)-4-(2,4-dicyano-3-methyl-5-thienyl)-azophenyl]-amino]-5-oxopentanoic acid diammonium salt] | 424 | 106 | 8.9 | 77 |  |
| Cc1c(C#N)sc(N=Nc2ccc(NC(=O)CCC(N)C(=O)O)cc2OCC(=O)O)c1C#N.N.N (centres unmarked) [S6, 2-Amino-5-[[3-carboxymethoxy-4-(2,4-dicyano-3-methyl-5-thienyl)-azophenyl]-amino]-5-oxopentanoic acid diammonium salt] | 448 |  |  |  |  |
| Cc1cc(NC(=O)CCC(N)C(=O)O)ccc1N=Nc1nc(C)c(C(=O)O)s1 (centres unmarked) [S7, 2-Amino-5-[[4-(5-carboxy-4-methyl-2-thiazolyl)-3-methylazophenyl]-amino]-5-oxopentanoic acid diammonium salt] | 412 |  |  |  |  |
| Cc1nc(N=Nc2ccc(NC(=O)CCC(N)C(=O)O)cc2CCC(=O)O)sc1C#N.N.N (centres unmarked) [S8, 2-Amino-5-[[3-(2-carboxyethyl)-4-(5-cyano-4-methyl-2-thiazolyl)-azophenyl]-amino]-5-oxopentanoic acid diammonium salt] | 420 | 100 | 25.2 | 101 |  |
| N.N.NC(CCC(=O)Nc1ccc(N=Nc2nccs2)c(CCC(=O)O)c1)C(=O)O (centres unmarked) [S9, 2-Amino-5-[[3-(2-carboxyethyl)-4-(2-thiazolyl)azophenyl]amino]-5-oxopentanoic acid diammonium salt] | 394 |  | 2.8 | 160 |  |
| C[n+]1ccsc1N=Nc1ccc(NC(=O)CCC(N)C(=O)[O-])cc1CCC(=O)O.N (centres unmarked) [S10, 2-Amino-5-[[3-(2-carboxylatoethyl)-4-(3-methylthiazolium-2-yl)-azophenyl]-amino]-5-oxopentanoic acid ammonium salt] | 402 |  |  |  | λmax. (coloured material) [1]: 486 nm; ε (coloured material) ([1]; printed after λmax. (coloured material)=486 nm): 15.5 cm^2 μmol^-1 |
| N.N.NC(CCC(=O)Nc1ccc(N=Nc2snc3cc([N+](=O)[O-])ccc23)c(OCC(=O)O)c1)C(=O)O (centres unmarked) [S11, 2-Amino-5-[[3-carboxymethoxy-4-(6-nitro-2,1-benzisothiazol-3-yl)-azophenyl]-amino]-5-oxopentanoic acid diammonium salt] | 453 | 107 |  |  |  |
| CCCCSc1nnc(N=Nc2ccc(NC(=O)CCC(N)C(=O)O)cc2OCC(=O)O)s1 (centres unmarked) [S12, 2-Amino-5-[[4-(2-butylthio-1,3,4-thiadiazol-5-yl)-3-carboxymethoxyazophenyl]-amino]-5-oxopentanoic acid diammonium salt] | 424 |  |  |  |  |
| CCOc1ccc2nc(N=Nc3ccc(NC(=O)CCC(N)C(=O)O)cc3OCC(=O)O)sc2c1.N.N (centres unmarked) [S13, 2-Amino-5-[[3-carboxymethoxy-4-(6-ethoxy-2-benzothiazolyl)-azophenyl]-amino]-5-oxopentanoic acid diammonium salt] | 449 |  |  |  |  |
| NC(CCC(=O)Nc1ccc([N+](=O)[O-])cc1)C(=O)O (centres unmarked) [γ-glutamyl-p-nitroanilide] |  |  |  |  | solubility (known substrate) [7]: poor solubility; stability (known substrate) [7]: instability |
